What all share (type): cell-based, mouse
In assay [1] the test system is α7 integrin (LacZ reporter in α7βgal+/− myoblasts). Briefly: Myoblast α7+/LacZ integrin FDG assay (Burkin assay in myoblasts, 96-well). The settings on record: α7+/LacZ myoblasts, 96-well.
The subject of assay [2] is α7 integrin (LacZ reporter in α7+/LacZ myotubes). Kind of assay: Myotube α7 integrin FDG assay (Burkin assay in myotubes, 96-well). The settings on record: myotubes.
Assay [3] deals with β-galactosidase in CMV-LacZ C2C12 myotubes. Kind of assay: CMV-LacZ secondary screen in C2C12 myotubes (β-Gal stabilizing assay). To be noted: C2C12 CMV-LacZ myotubes, fold relative to DMSO. The method, boiled down: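 A secondary screen identifies compounds that stabilize β-gal independently of the native promoter, using CMV-LacZ C2C12 cells. Curves span 0.5–40 μM at six levels, in duplicate.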

On to `COc1ccccc1-c1coc2c(CN3C(C)CCCC3C)c(O)ccc2c1=O` (stereo not shown) [MLS001163140-01], for which the “Burkin Assay in Myoblasts, value relative to DMSO” value in assay [1] (0.5 uM) was 1.019; in assay [1] (1 uM) it was 1.217; in assay [1] (5 uM) it was 0.9966; in assay [1] (10 uM), 1.098; in assay [1] (20 uM), 0.935; in assay [1] (40 uM), 0.9829. For the same compound, the “Burkin Assay in Myotubes (signal relative to DMSO)” value amounted to 0.9236 in assay [2] (0.5 uM); 1.035 in assay [2] (1 uM); 0.9282 in assay [2] (5 uM); 1.1264 in assay [2] (10 uM); 0.9651 in assay [2] (20 uM); 1.011 in assay [2] (40 uM). For the same compound, the “CMV-LACZ in Myotubes, signal relative to DMSO” value in assay [3] (5 uM) stood at 1.029; in assay [3] (10 uM), 1.061; in assay [3] (20 uM) it was 0.9159; in assay [3] (40 uM), 1.19.
On to `Cc1cc(-c2ccccc2)n2nc(N)nc2n1` [MLS000122180-01], for which the “Burkin Assay in Myoblasts, value relative to DMSO” value is reported as 0.8023 in assay [1] (0.5 uM); 0.8424 in assay [1] (1 uM); 0.9726 in assay [1] (5 uM); 0.9665 in assay [1] (10 uM); 1.004 in assay [1] (20 uM); 0.9116 in assay [1] (40 uM). Also, the “Burkin Assay in Myotubes (signal relative to DMSO)” value was 1.006 in assay [2] (0.5 uM); 0.9341 in assay [2] (1 uM); 1.027 in assay [2] (5 uM); 0.7456 in assay [2] (10 uM); 0.9557 in assay [2] (20 uM); 0.9496 in assay [2] (40 uM). In addition, the “CMV-LACZ in Myotubes, signal relative to DMSO” value is 0.7773 in assay [3] (5 uM), 0.8808 in assay [3] (10 uM), 0.8136 in assay [3] (20 uM) and 1.007 in assay [3] (40 uM).
Consider `CC(OC(=O)c1cc(-c2cccnc2)nc2ccccc12)C(=O)Nc1ccc2ccccc2c1` (stereo not shown) [MLS000389484-01], for which the “Burkin Assay in Myoblasts, signal relative to DMSO” value in assay [1] (0.5 uM) was determined as 0.7848; in assay [1] (1 uM), 0.7672; in assay [1] (5 uM) it was 0.8524; in assay [1] (10 uM), 0.8706; in assay [1] (20 uM) it was 0.7331; in assay [1] (40 uM), 0.6132. The “Burkin Assay in Myotubes, α7 integrin LacZ reporter signal relative to DMSO” value stood at 0.9292 in assay [2] (0.5 uM); 0.7793 in assay [2] (1 uM); 0.8638 in assay [2] (5 uM); 0.6433 in assay [2] (10 uM); 0.867 in assay [2] (20 uM); 0.6946 in assay [2] (40 uM). Besides, the “CMV-LACZ in Myotubes, signal relative to DMSO” value was determined as 0.8524 in assay [3] (5 uM), 0.8387 in assay [3] (10 uM), 1.116 in assay [3] (20 uM) and 2.781 in assay [3] (40 uM).
As for `COc1ccc(CCNC(=O)c2nn(C)c3c2CS(=O)(=O)c2ccccc2-3)cc1OC` [MLS001117140-01], the fold induction at 0.5 µM in assay [1] (Mus musculus, Myoblast, 48 h, 0.5 uM, read-out: Burkin Assay in Myoblasts, signal relative to DMSO) was found to be 1.03; in assay [2] (Mus musculus, Myotube, 0.5 uM, read-out: Burkin Assay in Myotubes, α7 integrin LacZ reporter signal relative to DMSO) it was 0.932. Also, the fold induction at 1 µM in assay [1] (Mus musculus, Myoblast, 48 h, 1 uM, read-out: Burkin Assay in Myoblasts, signal relative to DMSO) was 1.07; in assay [2] (Mus musculus, Myotube, 1 uM, read-out: Burkin Assay in Myotubes, α7 integrin LacZ reporter signal relative to DMSO), 1.12. Also, the fold induction at 5 µM in assay [1] (Mus musculus, Myoblast, 48 h, 5 uM, read-out: Burkin Assay in Myoblasts, signal relative to DMSO) came out at 0.909; in assay [2] (Mus musculus, Myotube, 5 uM, read-out: Burkin Assay in Myotubes, α7 integrin LacZ reporter signal relative to DMSO), 1.09; in assay [3] (Mus musculus, C2C12, read-out: CMV-LACZ in Myotubes, signal relative to DMSO, 5 uM), 0.951. Besides, the fold induction at 10 µM in assay [1] (Mus musculus, Myoblast, 48 h, 10 uM, read-out: Burkin Assay in Myoblasts, signal relative to DMSO) came to 0.901; in assay [2] (Mus musculus, Myotube, 10 uM, read-out: Burkin Assay in Myotubes, α7 integrin LacZ reporter signal relative to DMSO), 1.37; in assay [3] (Mus musculus, C2C12, read-out: CMV-LACZ in Myotubes, signal relative to DMSO, 10 uM) it was 1.12. In addition, the fold induction at 20 µM in assay [1] (Mus musculus, Myoblast, 48 h, 20 uM, read-out: Burkin Assay in Myoblasts, signal relative to DMSO) was 0.922; in assay [2] (Mus musculus, Myotube, 20 uM, read-out: Burkin Assay in Myotubes, α7 integrin LacZ reporter signal relative to DMSO) it was 1.09; in assay [3] (Mus musculus, C2C12, read-out: CMV-LACZ in Myotubes, signal relative to DMSO, 20 uM) it was 1.38. The fold induction at 40 µM in assay [1] (Mus musculus, Myoblast, 48 h, 40 uM, read-out: Burkin Assay in Myoblasts, signal relative to DMSO) turned out to be 0.942; in assay [2] (Mus musculus, Myotube, 40 uM, read-out: Burkin Assay in Myotubes, α7 integrin LacZ reporter signal relative to DMSO) it was 1.06; in assay [3] (Mus musculus, C2C12, read-out: CMV-LACZ in Myotubes, signal relative to DMSO, 40 uM), 1.17.
Take `Oc1c(Br)cc(Br)cc1CNc1cccc2cccnc12` [MLS001183429-01]: the “Burkin Assay in Myoblasts, signal relative to DMSO” value is 0.7592 in assay [1] (0.5 uM); 0.6652 in assay [1] (1 uM); 0.7821 in assay [1] (5 uM); 0.7373 in assay [1] (10 uM); 0.5666 in assay [1] (20 uM); 0.3329 in assay [1] (40 uM). The “Burkin Assay in Myotubes, α7 integrin LacZ reporter signal relative to DMSO” value in assay [2] (0.5 uM) is reported as 0.8042; in assay [2] (1 uM), 0.823; in assay [2] (5 uM), 0.8557; in assay [2] (10 uM), 0.733; in assay [2] (20 uM), 0.4076; in assay [2] (40 uM), 0.2629. Moreover, the “CMV-LACZ in Myotubes, signal relative to DMSO” value in assay [3] (5 uM) was determined as 0.8436; in assay [3] (10 uM), 0.944; in assay [3] (20 uM), 0.9105; in assay [3] (40 uM), 0.5809.
`COc1cc(CNCc2ccc(C(=O)O)cc2)ccc1OCc1ccc(F)cc1.Cl` [MLS001216405-01]: the “Burkin Assay in Myoblasts, value relative to DMSO” value in assay [1] (0.5 uM) was 1.132; in assay [1] (1 uM) it was 0.9785; in assay [1] (5 uM) it was 0.9945; in assay [1] (10 uM) it was 0.9208; in assay [1] (20 uM) it was 0.9202; in assay [1] (40 uM), 0.7667. For the same compound, the “Burkin Assay in Myotubes (signal relative to DMSO)” value came out at 1.128 in assay [2] (0.5 uM); 0.9927 in assay [2] (1 uM); 1.124 in assay [2] (5 uM); 0.9642 in assay [2] (10 uM); 0.9387 in assay [2] (20 uM); 0.8706 in assay [2] (40 uM). For the same compound, the “CMV-LACZ in Myotubes, signal relative to DMSO” value in assay [3] (5 uM) is reported as 0.9192; in assay [3] (10 uM) it was 0.8008; in assay [3] (20 uM), 1.345; in assay [3] (40 uM), 1.08.
Take `CN(C)CCNc1ncnc2sc(-c3ccccc3)cc12` [MLS001179717-01]: the “Burkin Assay in Myoblasts, signal relative to DMSO” value amounted to 0.912 in assay [1] (0.5 uM); 0.864 in assay [1] (1 uM); 0.8357 in assay [1] (5 uM); 0.6794 in assay [1] (10 uM); 0.3052 in assay [1] (20 uM); 0.05093 in assay [1] (40 uM). The “Burkin Assay in Myotubes, α7 integrin LacZ reporter signal relative to DMSO” value in assay [2] (0.5 uM) is recorded as 0.8788; in assay [2] (1 uM), 1.027; in assay [2] (5 uM), 0.744; in assay [2] (10 uM) it was 0.6812; in assay [2] (20 uM) it was 0.5137; in assay [2] (40 uM), 0.2663. The “CMV-LACZ in Myotubes, signal relative to DMSO” value in assay [3] (5 uM) came to 1.084; in assay [3] (10 uM), 0.8133; in assay [3] (20 uM) it was 0.5748; in assay [3] (40 uM), 0.4829.

For the origin of these results see patent US9980943B2, “Methods of treating muscular dystrophy” (BOARD OF REGENTS OF THE NEVADA SYSTEM OF HIGHER EDUCATION, …, priority 2013, dated 2018).
